Reference: PubChem BioAssay AID328 (DTP/NCI, 2004)
“And” between values parts separate entries of the source, which are not always exact repeats. Identical values can stand only once. Inconclusive results and toxic doses are left out. How the source made its calls: active means survival T/C of 150% or more; inactive means T/C below 125% in these data.

Test system: BDF1 mice, P388 leukemia ip, median survival T/C
Assay: NCI In Vivo Anticancer Drug Screen. Data for tumor model P388 Leukemia (intraperitoneal) in B6D2F1 (BDF1) mice
Conditions: endpoint: median survival time, higher = longer survival
Method in brief: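 Transplantable tumour in mice; compound vs vehicle dosing; survival scored; ratio of treated to control reported.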

[1] = dose: 100.0 mg/kg/injection, schedule: Q04DX003 (ip), vehicle: Klucel (hydroxypropylcellulose) (HPC)
[2] = dose: 12.0 mg/kg/injection, schedule: Q01DX009 (ip), vehicle: saline
[3] = dose: 50.0 mg/kg/injection, schedule: Q01DX009 (ip), vehicle: saline with Tween-80
[4] = dose: 100.0 mg/kg/injection, schedule: Q01DX009 (ip), vehicle: saline with Tween-80
[5] = dose: 100.0 mg/kg/injection, schedule: Q04DX003 (ip), vehicle: saline with Tween-80
[6] = dose: 200.0 mg/kg/injection, schedule: Q01DX009 (ip), vehicle: saline with Tween-80
[7] = dose: 200.0 mg/kg/injection, schedule: Q04DX003 (ip), vehicle: saline with Tween-80
[8] = dose: 400.0 mg/kg/injection, schedule: Q04DX003 (ip), vehicle: saline with Tween-80

Measured: T/C

O=C1C(=O)c2ccccc2C(O)=C1CC=C(Cl)Cl
inactive: dose: 6.2 mg/kg/injection, schedule: Q01DX005 (ip), vehicle: water 100 % of control | dose: 12.5 mg/kg/injection, schedule: Q01DX001 (ip), vehicle: water 100 % of control | dose: 12.5 mg/kg/injection, schedule: Q01DX005 (ip), vehicle: water 100 % of control | dose: 12.5 mg/kg/injection, schedule: Q01DX010 (ip), vehicle: saline 100 % of control | dose: 12.5 mg/kg/injection, schedule: Q03HX024 (ip), vehicle: water 100 % of control | dose: 12.5 mg/kg/injection, schedule: Q04DX003 (ip), vehicle: water 100 % of control | dose: 12.5 mg/kg/injection, schedule: Q08DX002 (ip), vehicle: water 100 % of control | dose: 25.0 mg/kg/injection, schedule: Q01DX001 (ip), vehicle: water 108 % of control | dose: 25.0 mg/kg/injection, schedule: Q01DX005 (ip), vehicle: water 100 % of control | dose: 25.0 mg/kg/injection, schedule: Q01DX009 (ip), vehicle: water 100 % of control | dose: 25.0 mg/kg/injection, schedule: Q01DX009 (oral), vehicle: water 100 % of control | dose: 25.0 mg/kg/injection, schedule: Q01DX010 (ip), vehicle: saline 87 % of control | dose: 25.0 mg/kg/injection, schedule: Q03HX008 (ip), vehicle: water 100 % of control | dose: 25.0 mg/kg/injection, schedule: Q03HX016 (ip), vehicle: water 109 % of control | dose: 25.0 mg/kg/injection, schedule: Q03HX024 (ip), vehicle: water 100 % of control | dose: 25.0 mg/kg/injection, schedule: Q04DX003 (ip), vehicle: water 100 % of control | dose: 25.0 mg/kg/injection, schedule: Q08DX002 (ip), vehicle: water 109 % of control | dose: 50.0 mg/kg/injection, schedule: Q01DX001 (ip), vehicle: water 108 % of control | dose: 50.0 mg/kg/injection, schedule: Q01DX001 (oral), vehicle: water 108 % of control | dose: 50.0 mg/kg/injection, schedule: Q01DX005 (ip), vehicle: water 100 % of control | dose: 50.0 mg/kg/injection, schedule: Q01DX009 (oral), vehicle: water 100 % of control | dose: 50.0 mg/kg/injection, schedule: Q01DX010 (ip), vehicle: saline 91 % of control | dose: 50.0 mg/kg/injection, schedule: Q01DX010 (oral), vehicle: saline with Tween-80 104 % of control | dose: 50.0 mg/kg/injection, schedule: Q03HX008 (ip), vehicle: water 100 % of control | dose: 50.0 mg/kg/injection, schedule: Q03HX016 (ip), vehicle: water 100 % of control | dose: 50.0 mg/kg/injection, schedule: Q03HX024 (ip), vehicle: water 86 % of control | dose: 50.0 mg/kg/injection, schedule: Q04DX003 (ip), vehicle: water 100 % of control | dose: 50.0 mg/kg/injection, schedule: Q08DX002 (ip), vehicle: water 109 % of control | dose: 75.0 mg/kg/injection, schedule: Q01DX005 (ip), vehicle: water 108 % of control | dose: 75.0 mg/kg/injection, schedule: Q03HX024 (ip), vehicle: water 86 % of control | dose: 75.0 mg/kg/injection, schedule: Q04DX003 (ip), vehicle: water 100 % of control | dose: 100.0 mg/kg/injection, schedule: Q01DX001 (oral), vehicle: water 108 % of control | dose: 100.0 mg/kg/injection, schedule: Q01DX009 (oral), vehicle: water 86 % of control | dose: 100.0 mg/kg/injection, schedule: Q01DX010 (oral), vehicle: saline with Tween-80 108 % of control | dose: 100.0 mg/kg/injection, schedule: Q03HX008 (ip), vehicle: water 100 % of control | dose: 100.0 mg/kg/injection, schedule: Q03HX016 (ip), vehicle: water 100 % of control | dose: 100.0 mg/kg/injection, schedule: Q03HX024 (ip), vehicle: water 100 % of control | dose: 100.0 mg/kg/injection, schedule: Q08DX002 (ip), vehicle: water 109 % of control | dose: 200.0 mg/kg/injection, schedule: Q01DX001 (oral), vehicle: water 100 % of control | dose: 200.0 mg/kg/injection, schedule: Q03HX008 (ip), vehicle: water 109 % of control | dose: 200.0 mg/kg/injection, schedule: Q03HX016 (ip), vehicle: water 100 % of control | dose: 300.0 mg/kg/injection, schedule: Q01DX009 (oral), vehicle: water 91 % of control

OCC1(CO)COC(c2ccccc2)OC1
inactive: dose: 25.0 mg/kg/injection, schedule: Q04DX003 (ip), vehicle: Klucel (hydroxypropylcellulose) (HPC) 95 % of control | dose: 50.0 mg/kg/injection, schedule: Q04DX003 (ip), vehicle: Klucel (hydroxypropylcellulose) (HPC) 100 % of control | [1] 100 % of control

CCNC(=O)OCc1c(COC(=O)NCC)c(-c2ccc(F)cc2)n2c1CCC2
inactive: dose: 25.0 mg/kg/injection, schedule: Q01DX009 (ip), vehicle: other 98 % of control

CC(C)N(C(C)C)C(C)CCNc1c2ccccc2nc2cc(Cl)ccc12 (configuration not stated)
inactive: dose: 6.0 mg/kg/injection, schedule: Q01DX009 (ip), vehicle: saline 100 % of control | [2] 105 % of control | dose: 24.0 mg/kg/injection, schedule: Q01DX009 (ip), vehicle: saline 100 % of control

O=C(CO)c1ccccc1
inactive: dose: 6.25 mg/kg/injection, schedule: Q01DX009 (ip), vehicle: saline with Tween-80 93 % of control | dose: 12.5 mg/kg/injection, schedule: Q01DX009 (ip), vehicle: saline with Tween-80 95 % of control | dose: 25.0 mg/kg/injection, schedule: Q01DX009 (ip), vehicle: saline with Tween-80 93 % of control | [3] 104 % of control

NC(=O)c1nccnc1Cl
inactive: [3] 110 % of control | dose: 50.0 mg/kg/injection, schedule: Q04DX003 (ip), vehicle: saline with Tween-80 101 % of control | [4] 98 % of control | [5] 102 % of control and 111 % of control | [6] 91 % of control | [7] 88 % of control and 104 % of control | [8] 92 % of control and 101 % of control

C=CCNC(=O)C12CC3CC(CC(C3)C1)C2
inactive: [3] 93 % of control | [4] 99 % of control | [6] 103 % of control

Cc1ccc(C(=O)C(Br)C(Br)c2ccccc2)cc1 (configuration not stated)
inactive: [5] 95 % of control | [7] 94 % of control | [8] 103 % of control

NCCc1ccc(OCc2ccccc2)c(OCc2ccccc2)c1
inactive: dose: 8.0 mg/kg/injection, schedule: Q01DX009 (ip), vehicle: saline 100 % of control | [2] 104 % of control | dose: 12.5 mg/kg/injection, schedule: Q04DX003 (ip), vehicle: saline 104 % of control | dose: 18.0 mg/kg/injection, schedule: Q01DX009 (ip), vehicle: saline 116 % of control | dose: 25.0 mg/kg/injection, schedule: Q04DX003 (ip), vehicle: saline 104 % of control | dose: 50.0 mg/kg/injection, schedule: Q04DX003 (ip), vehicle: saline 100 % of control

O=S(=O)(O)c1cc(S(=O)(=O)O)c2cc(N=Nc3ccc(N(CC4CO4)CC4CO4)cc3)ccc2c1 (configuration not stated)
inactive: dose: 100.0 mg/kg/injection, schedule: Q01DX001 (ip), vehicle: saline 108 % of control | dose: 200.0 mg/kg/injection, schedule: Q01DX001 (ip), vehicle: saline 102 % of control | dose: 400.0 mg/kg/injection, schedule: Q01DX001 (ip), vehicle: saline 113 % of control

COC(=O)C(CSCSC)NC(=O)/C=C/c1ccccc1Cl (configuration not stated)
inactive: [5] 100 % of control | [7] 87 % of control and 104 % of control | [8] 90 % of control

Cc1ccc(Sc2ccccc2C(C)(C)O)cc1
inactive: [3] 101 % of control | [4] 101 % of control | [6] 95 % of control

O=[N+]([O-])c1ccc(S(=O)(=O)Nc2ccc(-c3ccccc3)cc2)cc1
inactive: dose: 100.0 mg/kg/injection, schedule: Q04DX003 (ip), vehicle: other 96 % of control | dose: 200.0 mg/kg/injection, schedule: Q04DX003 (ip), vehicle: other 104 % of control | dose: 400.0 mg/kg/injection, schedule: Q04DX003 (ip), vehicle: other 100 % of control

CN(C)c1ccc(/C=C/c2nc3ccccc3o2)cc1
inactive: [1] 90 % of control | dose: 200.0 mg/kg/injection, schedule: Q04DX003 (ip), vehicle: Klucel (hydroxypropylcellulose) (HPC) 90 % of control | dose: 400.0 mg/kg/injection, schedule: Q04DX003 (ip), vehicle: Klucel (hydroxypropylcellulose) (HPC) 100 % of control
